From PubChem BioAssay (NCI)
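Five compound concentrations were applied to cells in 96-well plates for 48 hours; endpoints were derived by simple linear interpolation of the resulting dose-response curve. GI50 marks 50% less growth. TGI: total growth inhibition.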

Tests used:
Assay in all cases: inhibition of tumour cell growth, NCI panel, 48 h
TK-10 renal = test system: TK-10 renal
COLO 205 colon = test system: COLO 205 colon
OVCAR-3 ovarian = test system: OVCAR-3 ovarian
CCRF-CEM leukemia = test system: CCRF-CEM leukemia
MCF7 breast = test system: MCF7 breast
SF-539 CNS = test system: SF-539 CNS
SK-MEL-5 melanoma = test system: SK-MEL-5 melanoma
RPMI-8226 leukemia = test system: RPMI-8226 leukemia
A549 NSCLC = test system: A549 NSCLC
U251 CNS = test system: U251 CNS

Row | SMILES | GI50 (TK-10 renal) [µM] | TGI (TK-10 renal) [µM] | GI50 (COLO 205 colon) [µM] | TGI (COLO 205 colon) [µM] | GI50 (OVCAR-3 ovarian) [µM] | TGI (OVCAR-3 ovarian) [µM] | GI50 (CCRF-CEM leukemia) [µM] | TGI (CCRF-CEM leukemia) [µM] | GI50 (MCF7 breast) [µM] | TGI (MCF7 breast) [µM] | GI50 (SF-539 CNS) [µM] | TGI (SF-539 CNS) [µM] | GI50 (SK-MEL-5 melanoma) [µM] | TGI (SK-MEL-5 melanoma) [µM] | GI50 (RPMI-8226 leukemia) [µM] | TGI (RPMI-8226 leukemia) [µM] | GI50 (A549 NSCLC) [µM] | TGI (A549 NSCLC) [µM] | TGI (U251 CNS) [µM] | GI50 (U251 CNS) [µM]
1 | COc1cc(-c2nc3sc4c(c3c(=O)[nH]2)CCCCCC4)cc(OC)c1OC | 13.8 | > 33.2 | 1.16 | 10.3 | 0.922 | 8.94 | 1.28 | > 33.2 | 0.903 | > 33.2 | 0.673 | 2.08 | 0.853 | 2.96 | 1.19 | 12.6 | 1.95 | > 33.2 |  | 
2 | CCOC(=O)C(=Cc1ccc(C(=O)OC)cc1)C(=O)OCC |  | 7.34 |  | 3.59 |  | 9.57 |  | 4.71 |  |  |  | 3.17 |  | 4.64 |  | 4.73 |  | 12.4 | 4.77 | 
3 | CN1CC(C(=O)C2C(=O)c3ccccc3C2=O)C(=O)C(=O)C(C(=O)C2C(=O)c3ccccc3C2=O)C1 (configuration not stated) |  | > 100 |  | > 100 |  | > 10 |  | > 100 |  |  |  | > 100 |  |  |  |  |  | > 100 | > 100 | 
4 | O=C(Cc1cccc(OC(F)(F)F)c1)Nc1ccc(CCCCc2nnc(NC(=O)Cc3ccccn3)s2)nn1 | 11.7 | 24.5 | 23.8 | > 100 | 17 | > 100 | 32.1 | > 100 | 16.5 | > 100 | 15.7 | 50.3 | 16.1 | > 100 | 0.452 | 32.3 |  |  |  | 
5 | CC(=O)OC1CC2(O)C3CCC4CC(O)CCC4(C)C3CCC2(C)C1C1=CC(=O)OC1 (configuration not stated) |  | 0.489 |  | 0.76 |  | 0.172 |  | 1.69 |  |  |  | 0.113 |  | 0.116 |  | 0.445 |  | 0.0323 | 0.427 | 
6 | NC(=O)C(c1ccccc1)N1CCOCC1 (configuration not stated) |  | > 100 |  | > 100 |  | > 100 |  | > 100 |  |  |  | > 100 |  | > 100 |  | > 100 |  | > 100 | > 100 | 
7 | Cc1cc(NS(=O)(=O)c2ccc(NC(=O)c3cccc4c(Nc5ccc(S(=O)(=O)N=C(N)N)cc5)c5ccccc5nc34)cc2)no1 |  | > 100 |  | > 100 |  | > 100 |  |  |  |  |  | > 100 |  | > 100 |  | > 100 |  | > 100 | > 100 | 
8 | COc1ccc(/C=C\c2cc(OC)c(OC)c(OC)c2)cc1OC(=O)CCC(=O)O |  | > 100 | 1.68 | 38.5 |  |  |  | > 100 |  | > 100 |  |  | < 0.0001 |  |  | > 100 | 0.157 | > 100 |  | 
9 | CC(C)(C)C(=O)ON1N=NC2C3CC(OCc4ccccc4)(OCc4ccccc4)C(O3)C21 (configuration not stated) |  |  |  | 38.4 |  | 35.9 |  | 45.8 |  |  |  | 31 |  | 31.9 |  | 49.4 |  | > 100 | 31.4 | 
10 | O=C1CN(C(=O)c2ccccc2)Cc2[nH]c3ccccc3c21 |  | > 100 |  | > 100 |  | > 100 |  | > 100 |  |  |  | > 100 |  | > 100 |  | > 100 |  | > 100 | > 100 | 
11 | Cc1ccc2c(c1)NC(=O)CC(c1ccccc1)=N2 |  | > 100 |  |  |  | > 100 |  |  |  | > 100 |  | > 100 |  | > 100 |  | 76.7 |  | > 100 | > 100 | 
12 | Fc1ccc(C2SCc3nc4ccccc4n32)cc1 (configuration not stated) |  | 72 |  | > 100 |  | 77.6 |  | > 100 |  |  |  | > 100 |  | 38 |  | > 100 |  | > 100 | > 100 | 
13 | COc1ccccc1NC(=O)C1=C(C)NC(C)=C(C(=O)Nc2ccccc2OC)C1c1ccc(C)cc1 |  | > 100 |  | 44 |  | > 100 |  |  |  |  |  | > 100 |  | > 100 |  | > 100 |  |  | > 100 | 
14 | Cc1cc(=O)oc2cc(OCc3c(F)cccc3Cl)ccc12 |  | > 100 |  |  |  | > 100 |  |  |  | > 100 |  | 48.7 |  | > 100 |  |  |  | > 100 | 30.1 | 
15 | O=c1cc(-c2ccccc2)[nH]n1-c1nc2ccccc2[nH]1 | 17.7 | > 100 | 27.8 | > 100 | 4.46 | > 100 | 1.22 | > 100 | 3.89 | > 100 | 3.94 | 27.1 | 5.18 | 23.4 | 3.59 | 52.4 | 4.46 | > 100 |  | 
16 | CCN(c1ccc(Br)cc1)c1c(Br)c(=O)nc2ccccn12 |  | > 100 |  | > 100 |  | > 100 |  | > 100 |  |  |  | > 100 |  | > 100 |  | > 100 |  | > 100 | > 100 | 
17 | CCOC(=O)/C=C/C(C(=O)/C=C/c1ccc(O)c(OC)c1)=C(O)\C=C\c1ccc(O)c(OC)c1 | 5.3 | 29.2 | 3.14 | 12.8 | 3.39 | 12.3 | 3.62 | > 100 | 7.52 | 67.5 |  |  | 2.22 | 6 | 2.6 | 7.23 | 4.84 | 24.5 | 12.5 | 0.613
18 | O=C1C(=O)N(c2ccc(Cl)cc2Cl)C(=O)C(=O)C1c1nc2ccccc2o1 |  | > 100 |  | > 100 |  | > 100 |  | > 100 |  |  |  | > 100 |  | > 100 |  | > 100 |  | > 100 | > 100 | 
19 | CC(=O)OC1(C)C(=O)OC1(C)C(C)=O (configuration not stated) |  | > 100 |  | > 100 |  | > 100 |  | > 100 |  |  |  | > 100 |  | > 100 |  | > 100 |  | > 100 | > 100 | 
20 | O=C(CC(=O)N1N=C(N2c3ccccc3Sc3ccccc32)CC1c1ccccc1)Nc1ccc(Cl)cc1 (configuration not stated) |  | > 100 |  | > 100 |  | > 100 |  |  |  |  |  | > 100 |  | > 100 |  |  |  | > 100 | > 100 | 
21 | NC(N)=NNC(=O)CCCCCCCC(=O)NN=C(N)N |  | > 100 |  | 35.4 |  |  |  | > 100 |  |  |  | > 100 |  | > 100 |  |  |  | > 100 | > 100 | 
22 | O=C(OCC1CO1)c1cccs1 (configuration not stated) |  | > 100 |  | > 100 |  | > 100 |  | > 100 |  |  |  |  |  | > 100 |  | > 100 |  | > 100 |  | 
